From ChEMBL document CHEMBL5385944, “Hydrazyl hydroxycoumarins as new potential conquerors towards Pseudomonas aeruginosa” (Bioorg Med Chem Lett, 2024)
In brackets after ≈: the same amount, converted by molar mass.

Assays:
Format in all cases: functional
Pseudomonas aeruginosa [1] = assay: Antibacterial activity against Pseudomonas aeruginosa assessed as reduction in bacterial growth by CLSI protocol based method
Enterococcus faecalis = assay: Antibacterial activity against Enterococcus faecalis assessed as reduction in bacterial growth by CLSI protocol based method
Staphylococcus aureus [2] = assay: Antibacterial activity against Staphylococcus aureus ATCC 25923 assessed as reduction in bacterial growth by CLSI protocol based method
Staphylococcus aureus [3] = assay: Antibacterial activity against methicillin resistant Staphylococcus aureus assessed as reduction in bacterial growth by CLSI protocol based method
Staphylococcus aureus [4] = assay: Antibacterial activity against methicillin resistant Staphylococcus aureus 43300 assessed as reduction in bacterial growth by CLSI protocol based method
Klebsiella pneumoniae = assay: Antibacterial activity against Klebsiella pneumoniae assessed as reduction in bacterial growth by CLSI protocol based method
Staphylococcus aureus [5] = assay: Antibacterial activity against Staphylococcus aureus ATCC 29213 assessed as reduction in bacterial growth by CLSI protocol based method
Pseudomonas aeruginosa [6] = assay: Antibacterial activity against Pseudomonas aeruginosa ATCC 27853 assessed as reduction in bacterial growth by CLSI protocol based method
Pseudomonas aeruginosa [7] = assay: Antibacterial activity against Pseudomonas aeruginosa ATCC 10104 assessed as reduction in bacterial growth by CLSI protocol based method
Escherichia coli = assay: Antibacterial activity against Escherichia coli ATCC 25922 assessed as reduction in bacterial growth by CLSI protocol based method
Pseudomonas aeruginosa [8] = assay: Antibacterial activity against Pseudomonas aeruginosa ATCC 90027 assessed as reduction in bacterial growth by CLSI protocol based method
Acinetobacter baumannii = assay: Antibacterial activity against Acinetobacter baumannii assessed as reduction in bacterial growth by CLSI protocol based method

Row | Compound | MIC (Pseudomonas aeruginosa [1]) [µg/mL] | MIC (Enterococcus faecalis) [µg/mL] | MIC (Staphylococcus aureus [2]) [µg/mL] | MIC (Staphylococcus aureus [3]) [µg/mL] | MIC (Staphylococcus aureus [4]) [µg/mL] | MIC (Klebsiella pneumoniae) [µg/mL] | MIC (Staphylococcus aureus [5]) [µg/mL] | MIC (Pseudomonas aeruginosa [6]) [µg/mL] | MIC (Pseudomonas aeruginosa [7]) [µg/mL] | MIC (Escherichia coli) [µg/mL] | MIC (Pseudomonas aeruginosa [8]) [µg/mL] | MIC (Acinetobacter baumannii) [µg/mL]
1 | O=c1ccc2ccc(O)c(/C=N/NS(=O)(=O)c3cccc4c3OCC4)c2o1 | 512 (≈ 1330 µM) | 512 (≈ 1330 µM) | 512 (≈ 1330 µM) | 512 (≈ 1330 µM) | 512 (≈ 1330 µM) | 512 (≈ 1330 µM) | 512 (≈ 1330 µM) | 512 (≈ 1330 µM) | 512 (≈ 1330 µM) | 512 (≈ 1330 µM) | 512 (≈ 1330 µM) | 512 (≈ 1330 µM)
2 | Nc1ccc(C(=O)N/N=C/c2c(O)ccc3ccc(=O)oc23)cc1 | 512 (≈ 1580 µM) | 32 (≈ 99 µM) | 512 (≈ 1580 µM) | 512 (≈ 1580 µM) | 512 (≈ 1580 µM) | 256 (≈ 792 µM) | 512 (≈ 1580 µM) | 512 (≈ 1580 µM) | 512 (≈ 1580 µM) | 512 (≈ 1580 µM) |  | 256 (≈ 792 µM)
3 | O=c1ccc2ccc(O)c(/C=N/NS(=O)(=O)c3ccccc3)c2o1 | 512 (≈ 1490 µM) | 512 (≈ 1490 µM) | 512 (≈ 1490 µM) | 512 (≈ 1490 µM) | 512 (≈ 1490 µM) | 2 (≈ 5.81 µM) | 32 (≈ 92.9 µM) | 512 (≈ 1490 µM) | 512 (≈ 1490 µM) | 512 (≈ 1490 µM) | 512 (≈ 1490 µM) | 512 (≈ 1490 µM)
4 | Cc1ccc(S(=O)(=O)N/N=C/c2c(O)ccc3ccc(=O)oc23)cc1 | 512 (≈ 1430 µM) | 512 (≈ 1430 µM) | 512 (≈ 1430 µM) | 512 (≈ 1430 µM) | 512 (≈ 1430 µM) | 512 (≈ 1430 µM) | 256 (≈ 714 µM) | 512 (≈ 1430 µM) | 512 (≈ 1430 µM) | 256 (≈ 714 µM) | 512 (≈ 1430 µM) | 512 (≈ 1430 µM)
5 | O=c1ccc2ccc(O)c(/C=N/NS(=O)(=O)Cc3ccccc3)c2o1 | 512 (≈ 1430 µM) | 128 (≈ 357 µM) | 38 (≈ 106 µM) | 256 (≈ 714 µM) | 512 (≈ 1430 µM) | 512 (≈ 1430 µM) | 16 (≈ 44.6 µM) | 512 (≈ 1430 µM) | 512 (≈ 1430 µM) | 256 (≈ 714 µM) | 512 (≈ 1430 µM) | 512 (≈ 1430 µM)
6 | Cc1ncc([N+](=O)[O-])n1CC(=O)N/N=C/c1c(O)ccc2ccc(=O)oc12 | 256 (≈ 689 µM) | 32 (≈ 86.2 µM) | 4 (≈ 10.8 µM) | 256 (≈ 689 µM) | 128 (≈ 345 µM) | 256 (≈ 689 µM) | 256 (≈ 689 µM) | 8 (≈ 21.5 µM) | 64 (≈ 172 µM) | 256 (≈ 689 µM) | 32 (≈ 86.2 µM) | 256 (≈ 689 µM)
7 | O=c1ccc2ccc(O)c(/C=N/NS(=O)(=O)c3ccc(Cl)cc3)c2o1 | 256 (≈ 676 µM) | 512 (≈ 1350 µM) | 512 (≈ 1350 µM) | 512 (≈ 1350 µM) | 512 (≈ 1350 µM) | 256 (≈ 676 µM) | 4 (≈ 10.6 µM) | 512 (≈ 1350 µM) | 512 (≈ 1350 µM) | 256 (≈ 676 µM) | 512 (≈ 1350 µM) | 512 (≈ 1350 µM)
8 | N=C(N)N/N=C/c1c(O)ccc2ccc(=O)oc12 | 4 (≈ 16.2 µM) | 32 (≈ 130 µM) | 512 (≈ 2080 µM) | 512 (≈ 2080 µM) | 256 (≈ 1040 µM) | 512 (≈ 2080 µM) | 64 (≈ 260 µM) | 256 (≈ 1040 µM) | 512 (≈ 2080 µM) | 256 (≈ 1040 µM) | 4 (≈ 16.2 µM) | 256 (≈ 1040 µM)
9 | CC(=O)Nc1ccc(S(=O)(=O)N/N=C/c2c(O)ccc3ccc(=O)oc23)cc1 | 512 (≈ 1280 µM) | 512 (≈ 1280 µM) | 512 (≈ 1280 µM) | 512 (≈ 1280 µM) | 512 (≈ 1280 µM) | 512 (≈ 1280 µM) | 512 (≈ 1280 µM) | 512 (≈ 1280 µM) | 512 (≈ 1280 µM) | 256 (≈ 638 µM) | 64 (≈ 159 µM) | 128 (≈ 319 µM)
10 | O=C(N/N=C/c1c(O)ccc2ccc(=O)oc12)c1ccc([N+](=O)[O-])cc1 | 512 (≈ 1450 µM) | 512 (≈ 1450 µM) | 512 (≈ 1450 µM) | 512 (≈ 1450 µM) | 512 (≈ 1450 µM) | 512 (≈ 1450 µM) | 512 (≈ 1450 µM) | 512 (≈ 1450 µM) | 512 (≈ 1450 µM) | 4 (≈ 11.3 µM) | 512 (≈ 1450 µM) | 512 (≈ 1450 µM)
11 | Nc1ncc(C(=O)N/N=C/c2c(O)ccc3ccc(=O)oc23)s1 | 256 (≈ 775 µM) | 128 (≈ 387 µM) | 1 (≈ 3.03 µM) | 16 (≈ 48.4 µM) | 64 (≈ 194 µM) | 8 (≈ 24.2 µM) | 256 (≈ 775 µM) | 32 (≈ 96.9 µM) | 2 (≈ 6.05 µM) | 128 (≈ 387 µM) | 1 (≈ 3.03 µM) | 1 (≈ 3.03 µM)
